Assay results reported in US20250257055A1, “TERTIARY AMIDE DERIVATIVES SUBSTITUTED WITH 4-MEMBERED RING STRUCTURE” (Sumitomo Pharma Co., Ltd., priority 2024, published 2025).
Like-named read-outs stand apart in the source and are kept apart here.

Key:
hDAT = hDAT (Homo sapiens (Human), UniProt Q01959); test: Dopamine receptor inhibitory activity evaluation (binding assay, CHO-S/hDAT membranes); conditions: CHO-S/hDAT membrane preparation
Method: The binding evaluation assay was outsourced to Eurofins. Specifically, CHO-S/hDAT cells were homogenized in an incubation buffer consisting of 50 mmol/L Tris-HCl, pH 7.4, 100 mmol/L NaCl, 1 μmol/L Leupeptin, and 10 μmol/L PMSF. The membrane pellet obtained by centrifugation was resuspended in the incubation buffer to prepare a membrane preparation. The test compound (1-10 μmol/L DMSO solution), the membrane preparation, and 0.15 nmol/L […] were mixed and incubated at 4° C. for 180 minutes. The cell membrane-[^125I]RTI-55 complex was bound to a GF/B filter mat by vacuum filtration and washed with 50 mmol/L Tris-HCl, pH 7.4. The effect on the receptor was assessed by measuring radioactivity using a scintillation counter.

hSERT = hSERT (Homo sapiens (Human), UniProt P31645); test: Serotonin receptor inhibitory activity evaluation (binding assay, HEK293/hSERT membranes); conditions: HEK293/hSERT membrane preparation, [3H]Paroxetin
Method: The binding evaluation assay was outsourced to Eurofins. Specifically, HEK293/hSERT cells were homogenized in a buffer consisting of 100 mmol/L NaCl, 1 μmol/L Leupeptin, 10 μmol/L PMSF, and 50 mmol/L Tris-HCl (pH7.4). The membrane pellet obtained by centrifugation was resuspended in an incubation buffer consisting of 50 mmol/L Tris-HCl (pH 7.4), 120 mmol/L NaCl, and 5 mmol/L KCl to prepare a membrane preparation. The test compound (1-10 μmol/L DMSO solution), the membrane preparation, and 0.4 nmol/L [^3H]Paroxetin were mixed and incubated at 25° C. for 60 minutes. The cell membrane-[^3H]Paroxetin complex was bound to a GF/B filter mat by vacuum filtration and washed with 50 mmol/L Tris-HCl (pH 7.4). The effect on the receptor was assessed by measuring radioactivity using a scintillation counter.

G-401 cells = test: Cell proliferation inhibition experiment using G-401 cells; assay type: cell-based; conditions: Homo sapiens, 72 h, cultured for 3 days, CellTiter-Glo
Method in brief: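 Malignant rhabdoid tumor-derived cells, grown in McCoy's 5A with 10% FBS, were seeded at 500 cells/well and dosed one day later (final DMSO 0.1%). After 3 days of culture at 37° C, viability was read by CellTiter-Glo luminescence.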

[1] = Membrane permeability test (PAMPA); assay type: in vitro ADME
Method in brief: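 Donor compartment held compound in system solution over a GIT Lipid-0 membrane, with sink buffer on the acceptor side; incubation 4 h at 37° C. Donor and acceptor concentrations were read by UV (190-500 nm), or by LC-MS for weakly absorbing compounds, and Pe (10^−6 cm/sec) was calculated.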

Kuramochi cells = test: Cell proliferation inhibition experiment using Kuramochi cells; assay type: cell-based; conditions: 144 h, cultured for 6 days, CellTiter-Glo
Method: Kuramochi cells (derived from ovarian cancer) were obtained from JCRB (Japanese Collection of Research Bioresources) cell bank. Kuramochi cells were cultured in RPMI-1640 medium containing 10% fetal bovine serum and 1% penicillin/streptomycin under conditions of 37° C. and 5% CO2.
(§1) 500 cells per well were seeded in a 384-well plate. One day after seeding, Examples 3, 7, 9, 10, 11, 20, 23 to 25, and 30 to 34 were added so that the final concentration of DMSO was 0.1%, and the cells were cultured for 6 days. After the culture was completed, the cell viability was measured using CellTiter-Glo Luminescent Cell Viability Assay (Promega, G7570).

RMGI cells = test: Cell proliferation inhibition experiment using RMGI cells; assay type: cell-based; conditions: Homo sapiens, RMG-I, 144 h, cultured for 6 days, CellTiter-Glo
Method: RMGI cells (derived from ovarian cancer) were obtained from JCRB cell bank. RMGI cells were cultured in Ham's F12 medium containing 10% fetal bovine serum and 1% penicillin/streptomycin under conditions of 37° C. and 5% CO2.
as §1, with “200” for “500”, “20, and” for “20,”, “25” for “25, and 30 to 34”

recombinant p300 = recombinant p300 (Homo sapiens (Human), UniProt Q09472); test: HAT activity inhibition experiment (SensoLyte HAT(p300) Assay Kit); assay type: biochemical; conditions: recombinant p300, histone H3 peptide, acetyl CoA
Method in brief: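 Recombinant human p300 preincubated with compound 10 min at room temperature, then acetyl-CoA and histone H3 peptide added and reacted 30 min at 37 °C. After stop, developer added for 30 min at room temperature in the dark; fluorescence read at Ex 389/Em 513 nm.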

[2] = Pharmacokinetic study in mice; assay type: in vivo
Method: The test compound was administered to 7-week-old female BALB/c (BALB/cAnN CrlCrlj) mice intravenously (dosage: 1 mg/kg) in a 50% PEG solution (0.01 mol/L HCl) or orally (dosage: 10 mg/kg) in a 0.5% methylcellulose aqueous solution, and blood was collected at the following times:
Intravenous administration: 5 min, 15 min, 30 min, 1 hr, 2 hr, 4 hr, 6 hr, and 24 hr after administration
Oral administration: 15 min, 30 min, 1 hr, 2 hr, 4 hr, 6 hr, and 24 hr after administration
The collected blood was centrifuged at 3000 rpm×10 min using a refrigerated centrifuge set at 4° C., and the obtained plasma was measured by LC-MS. A calibration curve was prepared from the value (peak ratio) obtained by dividing the peak area of the test substance by the peak area of the internal standard substance in MS and the concentration of the plasma calibration curve sample. The concentration in the sample was calculated from the peak ratio and the calibration curve of each sample.

[3] = female, BALB/c (BALB/cAnN CrlCrlj), mouse, plasma, oral, 10 mg/kg

Sequence of hSERT (P31645 whole entry): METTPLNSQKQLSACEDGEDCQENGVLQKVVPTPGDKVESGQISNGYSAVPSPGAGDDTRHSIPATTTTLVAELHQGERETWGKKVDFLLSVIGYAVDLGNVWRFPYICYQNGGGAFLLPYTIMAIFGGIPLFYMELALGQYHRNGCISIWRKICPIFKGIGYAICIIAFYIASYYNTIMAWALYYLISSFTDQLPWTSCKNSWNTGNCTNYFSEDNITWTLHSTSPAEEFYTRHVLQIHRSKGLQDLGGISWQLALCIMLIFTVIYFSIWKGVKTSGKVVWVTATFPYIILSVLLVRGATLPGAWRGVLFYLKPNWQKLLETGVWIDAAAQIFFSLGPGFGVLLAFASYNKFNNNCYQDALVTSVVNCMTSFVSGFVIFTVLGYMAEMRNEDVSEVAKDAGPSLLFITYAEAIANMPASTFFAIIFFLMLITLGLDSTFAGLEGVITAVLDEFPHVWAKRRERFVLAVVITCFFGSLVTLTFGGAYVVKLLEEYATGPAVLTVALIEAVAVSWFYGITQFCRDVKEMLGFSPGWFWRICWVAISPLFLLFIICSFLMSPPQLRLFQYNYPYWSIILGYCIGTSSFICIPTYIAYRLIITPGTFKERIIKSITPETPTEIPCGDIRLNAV
Sequence of hDAT (Q01959 whole entry): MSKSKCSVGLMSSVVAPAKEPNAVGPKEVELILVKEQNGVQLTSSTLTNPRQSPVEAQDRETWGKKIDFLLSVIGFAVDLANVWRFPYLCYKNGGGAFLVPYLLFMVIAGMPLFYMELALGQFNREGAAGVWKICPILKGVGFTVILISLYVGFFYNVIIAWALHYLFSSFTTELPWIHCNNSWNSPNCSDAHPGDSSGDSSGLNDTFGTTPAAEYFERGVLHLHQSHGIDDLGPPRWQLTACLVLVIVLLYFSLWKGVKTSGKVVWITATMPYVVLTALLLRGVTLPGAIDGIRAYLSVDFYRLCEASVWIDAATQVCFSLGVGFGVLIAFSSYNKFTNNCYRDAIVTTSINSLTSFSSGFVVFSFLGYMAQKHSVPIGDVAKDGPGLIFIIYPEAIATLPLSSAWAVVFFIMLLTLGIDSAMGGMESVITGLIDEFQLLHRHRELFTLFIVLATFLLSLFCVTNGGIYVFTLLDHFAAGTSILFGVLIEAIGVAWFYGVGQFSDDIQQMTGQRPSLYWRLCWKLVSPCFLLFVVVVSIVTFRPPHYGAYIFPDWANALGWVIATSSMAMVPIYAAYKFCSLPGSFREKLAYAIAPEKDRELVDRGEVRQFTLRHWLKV
Sequence of recombinant p300 (Q09472 whole entry): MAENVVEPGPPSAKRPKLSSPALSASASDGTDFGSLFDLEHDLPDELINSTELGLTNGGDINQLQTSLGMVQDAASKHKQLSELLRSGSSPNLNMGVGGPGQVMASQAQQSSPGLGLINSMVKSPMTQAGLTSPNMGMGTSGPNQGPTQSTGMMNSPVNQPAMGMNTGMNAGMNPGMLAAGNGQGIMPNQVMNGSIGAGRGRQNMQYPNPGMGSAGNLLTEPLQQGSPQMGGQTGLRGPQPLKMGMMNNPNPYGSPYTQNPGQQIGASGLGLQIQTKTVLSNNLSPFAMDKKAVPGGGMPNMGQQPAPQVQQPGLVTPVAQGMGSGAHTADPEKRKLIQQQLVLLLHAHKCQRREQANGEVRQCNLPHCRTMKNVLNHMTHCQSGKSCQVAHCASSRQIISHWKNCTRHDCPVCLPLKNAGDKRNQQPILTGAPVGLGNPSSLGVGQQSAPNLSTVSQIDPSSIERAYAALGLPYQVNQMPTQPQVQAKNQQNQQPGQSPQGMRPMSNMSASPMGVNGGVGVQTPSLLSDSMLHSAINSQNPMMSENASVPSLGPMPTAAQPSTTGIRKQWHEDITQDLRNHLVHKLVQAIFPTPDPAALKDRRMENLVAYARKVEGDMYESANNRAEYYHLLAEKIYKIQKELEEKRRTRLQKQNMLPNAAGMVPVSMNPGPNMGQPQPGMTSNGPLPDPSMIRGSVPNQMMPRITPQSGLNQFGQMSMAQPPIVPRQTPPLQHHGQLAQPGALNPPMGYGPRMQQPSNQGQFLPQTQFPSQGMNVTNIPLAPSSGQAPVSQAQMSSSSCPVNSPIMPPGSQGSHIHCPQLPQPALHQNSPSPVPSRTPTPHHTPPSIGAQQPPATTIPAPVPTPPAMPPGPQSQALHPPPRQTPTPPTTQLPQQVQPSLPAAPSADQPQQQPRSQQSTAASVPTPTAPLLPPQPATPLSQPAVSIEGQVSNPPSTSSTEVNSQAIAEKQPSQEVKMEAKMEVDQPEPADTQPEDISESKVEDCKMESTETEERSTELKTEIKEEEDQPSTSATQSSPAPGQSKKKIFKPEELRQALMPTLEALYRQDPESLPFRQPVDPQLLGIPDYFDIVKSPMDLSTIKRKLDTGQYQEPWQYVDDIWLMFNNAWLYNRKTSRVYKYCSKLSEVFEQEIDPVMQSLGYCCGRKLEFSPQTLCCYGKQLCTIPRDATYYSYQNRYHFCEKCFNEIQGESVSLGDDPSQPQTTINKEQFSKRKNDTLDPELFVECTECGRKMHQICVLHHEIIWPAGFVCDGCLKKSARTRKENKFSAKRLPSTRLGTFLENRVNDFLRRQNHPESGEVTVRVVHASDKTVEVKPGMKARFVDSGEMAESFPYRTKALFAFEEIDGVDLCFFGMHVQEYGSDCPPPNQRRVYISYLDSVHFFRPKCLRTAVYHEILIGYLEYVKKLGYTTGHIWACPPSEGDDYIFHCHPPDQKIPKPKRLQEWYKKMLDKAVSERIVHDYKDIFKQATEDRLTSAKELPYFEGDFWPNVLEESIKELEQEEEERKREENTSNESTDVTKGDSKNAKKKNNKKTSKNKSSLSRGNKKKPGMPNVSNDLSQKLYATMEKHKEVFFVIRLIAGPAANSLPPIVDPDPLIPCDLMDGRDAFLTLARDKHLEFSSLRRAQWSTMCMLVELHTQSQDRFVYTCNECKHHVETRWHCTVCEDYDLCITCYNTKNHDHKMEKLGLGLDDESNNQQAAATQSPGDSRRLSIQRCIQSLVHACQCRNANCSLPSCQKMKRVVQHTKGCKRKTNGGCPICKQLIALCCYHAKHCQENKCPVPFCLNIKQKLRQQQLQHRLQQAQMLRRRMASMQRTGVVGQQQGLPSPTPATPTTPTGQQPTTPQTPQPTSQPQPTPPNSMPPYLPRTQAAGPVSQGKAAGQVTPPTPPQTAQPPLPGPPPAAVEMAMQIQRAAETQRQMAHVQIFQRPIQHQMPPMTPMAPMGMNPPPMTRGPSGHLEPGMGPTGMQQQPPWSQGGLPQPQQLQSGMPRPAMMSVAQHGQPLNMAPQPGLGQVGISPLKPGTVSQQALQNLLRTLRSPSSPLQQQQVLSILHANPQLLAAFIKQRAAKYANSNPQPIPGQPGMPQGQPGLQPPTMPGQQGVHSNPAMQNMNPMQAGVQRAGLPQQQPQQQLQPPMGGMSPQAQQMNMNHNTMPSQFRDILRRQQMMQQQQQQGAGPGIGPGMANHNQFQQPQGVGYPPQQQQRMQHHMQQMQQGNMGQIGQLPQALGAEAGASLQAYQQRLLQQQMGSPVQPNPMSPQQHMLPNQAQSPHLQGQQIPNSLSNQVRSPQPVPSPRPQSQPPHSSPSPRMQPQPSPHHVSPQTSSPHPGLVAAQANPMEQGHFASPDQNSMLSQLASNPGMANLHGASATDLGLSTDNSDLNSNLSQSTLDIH

**Q.** What does the source list for CN1CC(N(Cc2ccc(F)cn2)C(=O)CN2C(=O)N[C@]3(C[C@@H](F)c4cc(-c5cnn(CC6COC6)c5)ccc43)C2=O)(C(F)(F)F)C1 [Example 25, 2-[(1′S,3′R)-3′-fluoro-5′-{1-[(oxetan-3-yl)methyl]-1H-pyrazol-4-yl}-2,5-dioxo-2′,3′-dihydrospiro[imidazolidine-4,1′-inden]-1-yl]-N-[(5-fluoropyridin-2-yl)methyl]-N-[1-methyl-3-(trifluoromethyl)azetidin-3-yl]acetamide]?
**A.** inhibition at 10 µM (hDAT): 9%; inhibition at 10 µM (hSERT): 2%; IC50 (G-401 cells): 59 nM; Papp at 4 h ([1]; pH 5.0, 37° C., read-out: pH 5.0 Pe): 1 ×10⁻⁶ cm/s; Papp at 4 h ([1]; pH 7.4, 37° C., read-out: pH 7.4 Pe): 6.1 ×10⁻⁶ cm/s; IC50 (Kuramochi cells): 424 nM; IC50 (RMGI cells): 41 nM; IC50 (recombinant p300): 5.7 nM; AUC ([2]; female, BALB/c (BALB/cAnN CrlCrlj), mouse, plasma, intravenous, 1 mg/kg): 672 ng·h/mL; AUC [2, 3]: 1310 ng·h/mL; Cmax [2, 3]: 1630 ng/mL; BA ([2]; oral, 10 mg/kg): 19.6%
